Values joined by “and” are separate entries in the source; they are usually repeats but may differ in a detail not shown here. Equal entries are not always repeated. “Also recorded” adds a separate entry of the source. Where a SMILES comes first, the peptide text is derived from it. Bridges are numbered along the chain shown (N, C = ends). [ ]: non-standard residue; d: D form. Ala(cPent) = N[C@@H](CC1CCCC1)C(=O)O; AllylGly = C=CC[C@H](N)C(=O)O
Experiments:
ileum = assay: Ileum relaxation assay ex vivo; parameters: species or system rat; settings: 10^−11 to 10^−5 M, after contraction with carbachol
Experimental: The functional ileum bioassay was carried out as described in detail elsewhere. (Van der Poorten, O., Van Den Hauwe, R., Eiselt, E., Betti, C., Guillemyn, K., Chung, N. N., Hall, F., Bihel, F., Schiller, P. W., Tourwé, D., Sarret, P., Gendron, L, . . . Ballet, S. (2017). X-Space Screening of Dermorphin-Based Tetrapeptides through Use of Constrained Arylazepinone and Quinolinone Scaffolds. ACS medicinal chemistry letters, 8(11), 1177-1182) Briefly, rats were euthanized, and 2 cm ileum segments were dissected out before removal of extraneous fat and connective tissue.
The ileum was then mounted under 0.5-g tension in a 10 mL organ bath containing warmed (37° C.) and oxygenated (95% O2, 5% CO2) Krebs solution (6.9 g/L NaCl, 0.145 g/L MgSO4, 2.1 g/L NaHCO3, 0.35 g/L KCl, 0.165 g/L KH2PO4, 1.98 g/L dextrose and 0.28 g/L CaCl2)). […] Contractions of the muscle were recorded via an isometric force transducer (159901A, Radnoti, Monrovia, CA, USA). […]
Each concentration of the compounds tested were followed by 2×15-min washout periods in Krebs solution to allow full relaxation. Dose-response curves were obtained with NT (8-13) (10^−11 to 10^−6) as standard for each ileum and for compound 34(10^−11 to 10^−5) and IC50 values were determined. […]
Data are expressed as mean±standard errors of the mean (SEM). […]

Sprague-Dawley rats = assay: Tail-flick test (acute thermal pain), intrathecal injection; type: in vivo, rat; settings: for ED50, tail-flick test: from % MPE at 10 min post-injection, rat; for tail-flick latency time compared to saline injection: i.t. 10 to 150 μg/kg (compound 34) or 3 to 61 nmol/kg (compound 67); for % MPE: 10 min post-injection
Experimental: Rats were housed two per cage on Aspen shavings in a quiet room and kept on a 12 h light/dark cycle and allowed ad libitum access to food and water. The experimental procedures in this study were approved by the Animal Care Committee of Université de Sherbrooke and were in accordance with policies and directives of the Canadian Council on Animal Care.
Tail-flick test: The tail flick test was used as outcome measures heat-induced pain in animals and as indicators of a compound's analgesic efficacy.
Acute pain was assessed using the Tail flick test (Tail Flick Analgesia meterV2.00, Colombus Instruments, Columbus, Ohio, USA). Tail flick test measures sensitivity to a high-intensity light beam focused on the rat tail. The tail flick apparatus was set at a light intensity of 6 and a cutoff of 10 seconds. The latency to flick the tail out of the path of the light beam corresponds to the measure of pain sensitivity or analgesia.
Before testing, animals were individually acclimatized to manipulations and behavioral apparatus 5 min/day for three consecutive days. On the test day, latencies baseline measures were taken before drug injection to provide a mean baseline. The compounds were diluted in 0.9% saline at the desired dose. The effects of the compound or saline on thermal nociception were assessed every 10 min for up to 60 min following i.t. administration.
Moreover, tail flick latencies were converted into the percent maximal possible effect (% MPE) at the time of maximal peak of analgesia. % MPE were calculated according to the following formula: % MPE=[(Test latency)−(Saline latency)]/[(Cutoff)−(Saline latency)]×100. Data are expressed as mean±SEM of 5-8 animals for each dose.
Then, ED50 values were determined using the dose-response stimulation log(agonist) vs response (four parameters).
Data are expressed as mean±standard errors of the mean (SEM). All graphs and statistical analysis were performed using GraphPad Prism™ 7 (GraphPad software, La Jolla, CA, USA). […] A two-way ANOVA followed by Tukey's multiple comparisons test was used to determine the significant differences in changes in body temperature between different concentrations of compounds and saline (FIG. 9). The % MPE for the tail-flick test and the areas under the curve for the formalin test were analyzed using a one-way ANOVA followed by a Dunnett's multiple comparisons test to compare different concentrations of compounds and saline treatment (FIGS. 2B, 4B, 7A-B and 8B-D). […] Nonlinear regression using three parameters was performed for % of ileum relaxation and IC50 value was obtained from the resulting dose-response curve (FIG. 11). A difference in response was considered significant with p-values *p<0.05, **p<0.01, ***p<0.001 and **p<0.0001.

| SMILES | Ileum relaxation (ileum) | tail-flick latency at the lowest dose (Sprague-Dawley rats; 10 μg/kg i.t. (data not shown)) | ED50, tail-flick test (Sprague-Dawley rats; i.t.) | tail-flick latency time compared to saline injection (Sprague-Dawley rats) | % MPE (Sprague-Dawley rats; tail-flick, two higher doses i.t.) | dose at which analgesic effect / MPE reached a plateau (Sprague-Dawley rats; tail-flick, i.t.) | latency of the tail-flick reflex compared to baseline (Sprague-Dawley rats; 61 nmol/kg i.t.) | tail-flick latency at low doses (Sprague-Dawley rats; doses inferior to 3 nmol/kg i.t. (data not shown)) | antinociceptive effect compared with the other tested compounds (Sprague-Dawley rats; equimolar doses (61 nmol/kg i.t.)) | MPE plateau at the tested doses (Sprague-Dawley rats; tail-flick, 3 to 61 nmol/kg i.t.) | % MPE (Sprague-Dawley rats; tail-flick, highest dose i.t.) |
| --- | --- | --- | --- | --- | --- | --- | --- | --- | --- | --- | --- |
| CC(C)C[C@H](NC(=O)[C@H](Cc1ccc(O)cc1)NC(=O)[C@@H]1CC=CC[C@H](N)C(=O)N[C@@H](CCCCN)C(=O)N[C@@H](CCCCN)C(=O)N1)C(=O)O [compound 34, c[G(All)KKG(All)]YL] (H-[AllylGly]KK[AllylGly]YL-OH; staple 1-4) | doesn't impact gut motility; also recorded: No ileum | no apparent increase in latency | 48.52 μg/kg and 61 nmol/kg | significantly increased | at least 98% | around 90 μg/kg |  |  |  |  |  |
| NCCCC[C@@H]1NC(=O)[C@H](CCCCN)NC(=O)[C@@H](N)CC=CC[C@@H](C(=O)N[C@@H](Cc2ccc(O)cc2)C(=O)N[C@@H](CC2CCCC2)C(=O)O)NC1=O [compound 67, c[G(All)KKG(All)]YA(cyclopentyl)] (H-[AllylGly]KK[AllylGly]Y[Ala(cPent)]-OH; staple 1-4) |  |  | 8.14 nmol/kg | significantly increased |  |  | sustainably increased latency | no apparent increase in latency | highest antinociceptive effect | did not reach a plateau | at least 91% |
